Assay [1] concerns the target T1, Mitogen-activated protein kinase 12 (Homo sapiens) (UniProt P53778).
T1 sequence (whole entry): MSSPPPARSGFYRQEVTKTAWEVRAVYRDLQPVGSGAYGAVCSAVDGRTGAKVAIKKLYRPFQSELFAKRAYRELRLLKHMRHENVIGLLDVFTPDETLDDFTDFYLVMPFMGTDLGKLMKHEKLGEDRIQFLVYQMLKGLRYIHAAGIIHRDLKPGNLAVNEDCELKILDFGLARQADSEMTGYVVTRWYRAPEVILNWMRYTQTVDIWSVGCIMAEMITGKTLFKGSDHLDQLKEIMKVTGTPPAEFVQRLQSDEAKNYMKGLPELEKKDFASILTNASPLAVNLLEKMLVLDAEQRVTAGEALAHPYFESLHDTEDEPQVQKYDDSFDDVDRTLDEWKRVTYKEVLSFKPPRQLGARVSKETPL
Nature of the assay: Inhibition of human full length p38 gamma expressed in Escherichia coli cell assessed as substrate phosphorylation using fluorescence-labelled peptides as substrate at 8 uM after 90 mins by microfluidic peptide phosphorylation assay.

The target of assay [2] is Ribosomal protein S6 kinase alpha-3 (Homo sapiens) (UniProt P51812). As to the kind of experiment: Inhibition of human full length RSK2 expressed in baculovirus assessed as substrate phosphorylation using fluorescence-labelled peptides as substrate at 8 uM after 90 mins by microfluidic peptide phosphorylation assay.
Chain of Ribosomal protein S6 kinase alpha-3 (Homo sapiens) (P51812 whole entry): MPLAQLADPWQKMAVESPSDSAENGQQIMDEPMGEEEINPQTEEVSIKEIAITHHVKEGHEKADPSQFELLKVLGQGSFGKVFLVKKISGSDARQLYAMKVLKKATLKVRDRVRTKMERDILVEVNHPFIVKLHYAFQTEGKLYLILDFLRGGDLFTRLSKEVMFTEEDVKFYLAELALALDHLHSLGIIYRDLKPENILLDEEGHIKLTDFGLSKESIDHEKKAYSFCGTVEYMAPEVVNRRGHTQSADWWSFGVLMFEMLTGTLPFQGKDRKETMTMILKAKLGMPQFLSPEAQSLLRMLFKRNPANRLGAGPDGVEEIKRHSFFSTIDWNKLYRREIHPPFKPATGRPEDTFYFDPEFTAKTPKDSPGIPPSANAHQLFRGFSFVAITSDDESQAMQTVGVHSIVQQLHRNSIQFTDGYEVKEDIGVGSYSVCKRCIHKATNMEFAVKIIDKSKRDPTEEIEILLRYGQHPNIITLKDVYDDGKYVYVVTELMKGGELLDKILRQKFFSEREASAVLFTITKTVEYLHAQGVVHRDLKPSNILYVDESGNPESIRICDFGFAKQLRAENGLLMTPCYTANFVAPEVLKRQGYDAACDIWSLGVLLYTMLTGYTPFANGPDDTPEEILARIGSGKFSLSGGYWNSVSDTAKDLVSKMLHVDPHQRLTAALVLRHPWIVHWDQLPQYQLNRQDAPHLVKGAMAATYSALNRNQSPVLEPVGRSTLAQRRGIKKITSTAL
The target in assay [3] is T2, Calcium/calmodulin-dependent protein kinase type IV (Homo sapiens) (UniProt Q16566).
T2 sequence (whole entry): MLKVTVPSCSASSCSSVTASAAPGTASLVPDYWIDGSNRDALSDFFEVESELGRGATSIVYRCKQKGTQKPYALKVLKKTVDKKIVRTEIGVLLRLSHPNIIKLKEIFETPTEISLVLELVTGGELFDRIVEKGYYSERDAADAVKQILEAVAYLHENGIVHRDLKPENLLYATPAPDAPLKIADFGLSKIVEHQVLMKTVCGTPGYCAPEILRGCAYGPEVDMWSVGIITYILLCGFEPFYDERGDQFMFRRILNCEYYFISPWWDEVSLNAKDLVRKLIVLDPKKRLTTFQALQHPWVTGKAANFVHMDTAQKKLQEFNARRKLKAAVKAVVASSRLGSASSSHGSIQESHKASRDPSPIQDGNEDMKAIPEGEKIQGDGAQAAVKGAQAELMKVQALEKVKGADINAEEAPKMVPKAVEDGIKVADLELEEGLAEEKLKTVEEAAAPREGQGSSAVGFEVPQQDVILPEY
Nature of the assay: Inhibition of human full length CAMK4 expressed in baculovirus assessed as substrate phosphorylation using fluorescence-labelled peptides as substrate at 420 uM after 90 mins by microfluidic peptide phosphorylation assay.

The target in assay [4] is Tyrosine-protein kinase Lyn (Homo sapiens) (UniProt P07948). The settings on record: 0.1 uM.
Chain of Tyrosine-protein kinase Lyn (Homo sapiens) (P07948 2-512 limits assumed): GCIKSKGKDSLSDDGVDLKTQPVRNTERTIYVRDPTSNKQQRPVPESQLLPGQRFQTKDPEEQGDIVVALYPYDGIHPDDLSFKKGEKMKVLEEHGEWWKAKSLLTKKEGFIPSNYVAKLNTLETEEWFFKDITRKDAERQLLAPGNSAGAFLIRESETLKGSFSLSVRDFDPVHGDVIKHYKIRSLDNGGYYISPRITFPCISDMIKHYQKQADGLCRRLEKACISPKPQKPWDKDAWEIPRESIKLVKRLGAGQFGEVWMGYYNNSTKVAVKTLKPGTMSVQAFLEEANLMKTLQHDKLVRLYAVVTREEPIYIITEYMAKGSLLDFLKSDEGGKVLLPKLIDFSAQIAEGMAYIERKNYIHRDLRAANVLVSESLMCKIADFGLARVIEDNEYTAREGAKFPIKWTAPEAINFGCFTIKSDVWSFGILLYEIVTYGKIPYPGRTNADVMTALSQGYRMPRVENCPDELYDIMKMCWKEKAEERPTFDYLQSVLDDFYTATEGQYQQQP
Description: Inhibition of human full length LYN expressed in baculovirus assessed as substrate phosphorylation using fluorescence-labelled peptides as substrate at 0.1 uM after 90 mins by microfluidic peptide phosphorylation assay
Assay [5] addresses Serine/threonine-protein kinase PAK 2 (Homo sapiens) (UniProt Q13177). Nature of the assay: Inhibition of human truncated PAK2 expressed in Escherichia coli cell assessed as substrate phosphorylation using fluorescence-labelled peptides as substrate at 0.06 uM after 90 mins by microfluidic peptide phosphorylation assay.
In assay [6] the target is Protein kinase C beta type (Homo sapiens) (UniProt P05771). Nature of the assay: Inhibition of human truncated PKC beta1 expressed in baculovirus assessed as substrate phosphorylation using fluorescence-labelled peptides as substrate at 0.2 uM after 90 mins by microfluidic peptide phosphorylation assay.
Chain of Protein kinase C beta type (Homo sapiens) (P05771 2-671 limits assumed): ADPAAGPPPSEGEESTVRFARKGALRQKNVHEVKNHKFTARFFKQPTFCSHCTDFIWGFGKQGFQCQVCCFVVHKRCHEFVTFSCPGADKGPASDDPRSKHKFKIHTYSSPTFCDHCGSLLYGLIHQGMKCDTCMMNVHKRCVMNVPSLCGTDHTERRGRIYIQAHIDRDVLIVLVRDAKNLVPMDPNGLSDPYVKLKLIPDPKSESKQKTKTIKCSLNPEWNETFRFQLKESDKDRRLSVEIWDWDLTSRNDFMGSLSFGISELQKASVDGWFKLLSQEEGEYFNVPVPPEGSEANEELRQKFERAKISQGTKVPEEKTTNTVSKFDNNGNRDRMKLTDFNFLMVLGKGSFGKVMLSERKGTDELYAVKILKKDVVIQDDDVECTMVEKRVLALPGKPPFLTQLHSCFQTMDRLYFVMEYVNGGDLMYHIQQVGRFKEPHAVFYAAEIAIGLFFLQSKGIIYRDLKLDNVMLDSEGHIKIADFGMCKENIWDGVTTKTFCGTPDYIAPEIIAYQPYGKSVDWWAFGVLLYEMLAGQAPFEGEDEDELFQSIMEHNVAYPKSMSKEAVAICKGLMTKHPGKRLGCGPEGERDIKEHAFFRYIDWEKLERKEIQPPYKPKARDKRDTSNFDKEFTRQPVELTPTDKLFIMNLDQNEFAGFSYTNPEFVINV
For assay [7], the target named is Tyrosine-protein kinase Fer (Homo sapiens) (UniProt P16591). Nature of the assay: Inhibition of human FER catalytic domain expressed in baculovirus assessed as substrate phosphorylation using fluorescence-labelled peptides as substrate at 9 uM after 90 mins by microfluidic peptide phosphorylation assay.
Chain of Tyrosine-protein kinase Fer (Homo sapiens) (P16591 whole entry, looked up, the tested form may be a part): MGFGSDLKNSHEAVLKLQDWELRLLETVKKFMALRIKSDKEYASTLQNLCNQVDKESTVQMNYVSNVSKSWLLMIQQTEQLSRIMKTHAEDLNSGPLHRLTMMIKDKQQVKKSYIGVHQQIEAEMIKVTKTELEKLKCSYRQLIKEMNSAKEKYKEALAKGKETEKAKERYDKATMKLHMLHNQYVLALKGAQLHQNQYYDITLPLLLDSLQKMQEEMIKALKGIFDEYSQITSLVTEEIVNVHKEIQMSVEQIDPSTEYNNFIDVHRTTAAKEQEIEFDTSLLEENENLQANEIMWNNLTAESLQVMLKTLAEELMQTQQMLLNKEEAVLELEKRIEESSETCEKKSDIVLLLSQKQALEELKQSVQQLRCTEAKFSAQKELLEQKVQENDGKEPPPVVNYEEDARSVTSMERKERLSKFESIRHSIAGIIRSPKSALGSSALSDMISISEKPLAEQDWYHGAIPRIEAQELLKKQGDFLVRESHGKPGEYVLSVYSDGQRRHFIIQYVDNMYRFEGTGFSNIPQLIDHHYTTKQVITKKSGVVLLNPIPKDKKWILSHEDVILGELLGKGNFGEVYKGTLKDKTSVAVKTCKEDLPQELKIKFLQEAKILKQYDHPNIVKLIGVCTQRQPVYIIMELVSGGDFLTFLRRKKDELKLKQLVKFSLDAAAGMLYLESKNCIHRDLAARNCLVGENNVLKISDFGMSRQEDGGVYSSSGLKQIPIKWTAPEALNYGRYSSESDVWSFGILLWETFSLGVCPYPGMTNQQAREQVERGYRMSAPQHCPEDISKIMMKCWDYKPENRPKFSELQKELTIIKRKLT
For assay [8], the target named is Vascular endothelial growth factor receptor 2 (Homo sapiens) (UniProt P35968). Nature of the assay: Inhibition of human KDR cytoplasmic domain expressed in baculovirus assessed as substrate phosphorylation using fluorescence-labelled peptides as substrate at 70 uM after 90 mins by microfluidic peptide phosphorylation assay.
For assay [9], the target named is Mitogen-activated protein kinase 14 (Homo sapiens) (UniProt Q16539). Nature of the assay: Inhibition of human truncated p38 alpha expressed in Escherichia coli cell assessed as substrate phosphorylation using fluorescence-labelled peptides as substrate at 70 uM after 90 mins by microfluidic peptide phosphorylation assay.
Chain of Mitogen-activated protein kinase 14 (Homo sapiens) (Q16539 whole entry, the tested form may be a part): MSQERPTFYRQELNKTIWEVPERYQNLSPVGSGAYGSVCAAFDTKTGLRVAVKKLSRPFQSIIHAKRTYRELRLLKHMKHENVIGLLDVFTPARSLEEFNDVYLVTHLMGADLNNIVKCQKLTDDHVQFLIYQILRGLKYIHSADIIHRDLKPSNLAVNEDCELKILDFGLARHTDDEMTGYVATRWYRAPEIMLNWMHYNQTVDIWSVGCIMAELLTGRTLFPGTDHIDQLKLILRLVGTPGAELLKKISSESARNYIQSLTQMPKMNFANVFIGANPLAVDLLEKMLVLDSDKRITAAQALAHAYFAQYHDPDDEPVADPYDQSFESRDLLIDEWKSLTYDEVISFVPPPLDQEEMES
In assay [10] the target is T3, Serine/threonine-protein kinase Nek2 (Homo sapiens) (UniProt P51955).
T3 sequence (whole entry): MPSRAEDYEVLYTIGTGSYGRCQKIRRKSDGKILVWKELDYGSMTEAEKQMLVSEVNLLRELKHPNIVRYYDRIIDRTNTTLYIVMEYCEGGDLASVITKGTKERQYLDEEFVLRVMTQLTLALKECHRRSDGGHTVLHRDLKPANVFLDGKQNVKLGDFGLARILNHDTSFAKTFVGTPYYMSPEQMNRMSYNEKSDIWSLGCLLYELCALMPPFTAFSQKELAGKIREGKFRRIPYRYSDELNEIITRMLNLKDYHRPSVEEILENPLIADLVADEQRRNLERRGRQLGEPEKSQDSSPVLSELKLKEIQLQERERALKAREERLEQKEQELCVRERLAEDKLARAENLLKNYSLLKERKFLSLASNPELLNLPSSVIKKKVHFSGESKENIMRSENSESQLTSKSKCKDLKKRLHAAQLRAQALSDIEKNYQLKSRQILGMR
As to the kind of experiment: Inhibition of human full length NEK2 expressed in baculovirus assessed as substrate phosphorylation using fluorescence-labelled peptides as substrate at 95 uM after 90 mins by microfluidic peptide phosphorylation assay.

Assay [11] deals with Ribosomal protein S6 kinase alpha-4 (Homo sapiens) (UniProt O75676). Nature of the assay: Inhibition of human full length MSK2 expressed in baculovirus assessed as substrate phosphorylation using fluorescence-labelled peptides as substrate at 95 uM after 90 mins by microfluidic peptide phosphorylation assay.
Chain of Ribosomal protein S6 kinase alpha-4 (Homo sapiens) (O75676 whole entry, looked up): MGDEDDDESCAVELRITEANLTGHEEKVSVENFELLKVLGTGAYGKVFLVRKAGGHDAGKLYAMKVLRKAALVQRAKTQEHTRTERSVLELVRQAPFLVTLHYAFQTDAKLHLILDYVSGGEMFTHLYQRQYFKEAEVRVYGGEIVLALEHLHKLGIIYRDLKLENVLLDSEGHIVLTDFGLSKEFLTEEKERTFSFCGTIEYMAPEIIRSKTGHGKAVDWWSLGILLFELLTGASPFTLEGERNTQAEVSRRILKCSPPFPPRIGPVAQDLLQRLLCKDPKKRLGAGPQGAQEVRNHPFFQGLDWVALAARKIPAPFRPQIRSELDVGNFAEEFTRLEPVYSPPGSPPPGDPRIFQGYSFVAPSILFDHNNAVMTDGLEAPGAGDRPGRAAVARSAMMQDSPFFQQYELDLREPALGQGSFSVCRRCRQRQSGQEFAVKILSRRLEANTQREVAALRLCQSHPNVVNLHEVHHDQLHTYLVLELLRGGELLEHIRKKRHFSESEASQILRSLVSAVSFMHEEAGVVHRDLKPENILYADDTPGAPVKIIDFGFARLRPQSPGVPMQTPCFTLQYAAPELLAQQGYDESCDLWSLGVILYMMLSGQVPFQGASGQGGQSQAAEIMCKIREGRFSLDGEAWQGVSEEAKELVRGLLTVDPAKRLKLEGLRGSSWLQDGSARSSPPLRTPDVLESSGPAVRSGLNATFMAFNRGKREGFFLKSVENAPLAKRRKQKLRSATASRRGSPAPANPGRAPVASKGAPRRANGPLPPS
Assay [12] concerns the target T1, Mitogen-activated protein kinase 12 (Homo sapiens). Nature of the assay: Inhibition of human full length p38 gamma expressed in Escherichia coli cell assessed as substrate phosphorylation using fluorescence-labelled peptides as substrate at 1000 uM after 90 mins by microfluidic peptide phosphorylation assay.
In assay [13] the target is Serine/threonine-protein kinase Chk2 (Homo sapiens) (UniProt O96017). Nature of the assay: Inhibition of human full length CHK2 expressed in baculovirus assessed as substrate phosphorylation using fluorescence-labelled peptides as substrate at 1000 uM after 90 mins by microfluidic peptide phosphorylation assay.
Chain of Serine/threonine-protein kinase Chk2 (Homo sapiens) (O96017 whole entry): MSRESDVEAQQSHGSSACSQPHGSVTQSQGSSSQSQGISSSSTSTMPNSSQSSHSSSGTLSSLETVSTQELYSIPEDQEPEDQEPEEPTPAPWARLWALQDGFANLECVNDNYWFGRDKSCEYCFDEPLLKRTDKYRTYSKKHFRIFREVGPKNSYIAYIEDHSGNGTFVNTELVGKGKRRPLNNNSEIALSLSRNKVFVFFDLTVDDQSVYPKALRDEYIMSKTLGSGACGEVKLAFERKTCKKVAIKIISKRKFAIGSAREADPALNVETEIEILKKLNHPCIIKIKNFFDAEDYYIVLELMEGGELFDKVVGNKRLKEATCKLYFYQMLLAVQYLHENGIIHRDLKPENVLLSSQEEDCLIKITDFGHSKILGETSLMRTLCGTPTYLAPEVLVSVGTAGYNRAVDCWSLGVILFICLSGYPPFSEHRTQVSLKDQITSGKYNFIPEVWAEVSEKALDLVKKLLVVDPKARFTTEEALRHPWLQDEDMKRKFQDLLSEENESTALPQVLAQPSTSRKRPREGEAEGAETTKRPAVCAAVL

Chain of Serine/threonine-protein kinase PAK 2 (Homo sapiens) (Q13177 whole entry, the tested form may be a part): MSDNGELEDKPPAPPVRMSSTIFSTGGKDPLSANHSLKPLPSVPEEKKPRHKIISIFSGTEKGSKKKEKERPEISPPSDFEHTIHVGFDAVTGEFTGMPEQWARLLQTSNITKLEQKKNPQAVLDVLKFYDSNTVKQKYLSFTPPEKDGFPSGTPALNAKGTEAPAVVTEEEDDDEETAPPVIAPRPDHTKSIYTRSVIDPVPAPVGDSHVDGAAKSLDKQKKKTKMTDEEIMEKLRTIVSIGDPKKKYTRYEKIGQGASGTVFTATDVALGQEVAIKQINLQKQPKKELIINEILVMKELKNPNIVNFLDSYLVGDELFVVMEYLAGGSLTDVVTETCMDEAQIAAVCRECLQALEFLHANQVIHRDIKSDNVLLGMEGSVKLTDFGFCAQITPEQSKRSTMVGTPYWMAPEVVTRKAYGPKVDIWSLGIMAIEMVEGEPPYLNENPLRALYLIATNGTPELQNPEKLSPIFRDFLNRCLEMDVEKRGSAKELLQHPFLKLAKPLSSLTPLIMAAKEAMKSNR

On to `NCC1CCN(c2ncnc3[nH]ccc23)CC1`, for which the figures for the inhibition in assay [1] and in assay [2] were 5% and 32%, respectively.
Turning to `c1nc(N2CCOCC2)c2nc[nH]c2n1`, the inhibition in [3] worked out at 62%.
On to `C[C@H](CN(C)C)Oc1nc(Nc2cc3cccc(Cl)c3cn2)cnc1C#N`, for which the inhibition in assay [4] was determined as 0%.
On to `NC1(Cc2ccc(Cl)cc2)CCN(c2ncnc3[nH]ccc23)CC1`, for which the inhibition in assay [5] came out at 1.5%.
On to `Clc1ccc(C2(c3ccc(-c4ncnc5[nH]cnc45)cc3)CCNCC2)cc1`, for which, in assay [6], the inhibition turned out to be 53%.
Take `NCC1CN(c2ncnc3[nH]c4cnccc4c23)CCO1` (stereo not drawn): in assay [7], the inhibition came to 11%.
Consider `CNCc1ccc(-c2ncnc3[nH]cnc23)cc1`, for which the inhibition amounted to 64% in assay [8] and 0% in assay [9].
For `NCCc1ccc(-c2ncnc3[nH]cnc23)cc1`, the inhibition in assay [10] was 0%; in [11], 54%.
Consider `c1cnc2[nH]ccc2c1`, for which the inhibition worked out at 64% in assay [12] and 74% in assay [13].

For orientation: inhibition means the relative decrease from the control value, in per cent.
